Where a name gives a salt, the structure may show the parent alone. Starred links: 1 amine or outer side, 2 acyl side, 3 side chain; linkers in the order of their positions; H or OH if unused. Positions of bridges follow the written chain, without caps; N, C: chain ends. Non-standard residues stand in square brackets, D forms with d. Residues, ends and D or L forms follow the SMILES beside them. Groups on a side chain read outwards from the residue. *: point of attachment. Phe(3-CH2NH2) = O=C([C@H](Cc1cccc(CN[*:3])c1)N[*:1])[*:2]; X1 = O=C1CC[C@@H](C(=O)[*:1])N1CCCSCc1cccc(C[*:2])c1; Trp(5-F) = N[C@@H](Cc1c[nH]c2ccc(F)cc12)C(=O)O; Phe(4-CH2NH2) = NCc1ccc(C[C@H](N)C(=O)O)cc1; Heptanedioyl = O=C(CCCCCC(=O)[*:2])[*:1]; Pro(cis-4-F) = O=C(O)[C@@H]1C[C@H](F)CN1; γGlu = O=C(O)[C@H](CCC(=O)[*:2])N[*:1]; Propanoyl(3,3,3-F3) = O=C(CC(F)(F)F)*; mXylylene = c1cc(C[*:1])cc(C[*:2])c1; AEF = NCCOc1ccc(C[C@H](N)C(=O)O)cc1; X48 = CC(N[*:1])c1ncc(C(=O)[*:2])s1; Adipoyl = O=C(CCCCC(=O)[*:2])[*:1]; Palmitoyl = CCCCCCCCCCCCCCCC(=O)*; αMeP = C[C@@]1(C(=O)O)CCCN1; 3Amb = NCc1cccc(C(=O)O)c1; X51 = COCCOCCOCCOCCC(=O)*; Isobutyryl = CC(C)C(=O)*; Orn = NCCC[C@H](N)C(=O)O; AEEA = NCCOCCOCC(=O)O; X2 = O=C(C[*:2])[*:1]; Tfa = O=C(C(F)(F)F)*; X28 = CC(C)(F)C(=O)*; Mpa = O=C(O)CCS
Key:
PCSK9 [1] = target: T1, PCSK9 (Homo sapiens (Human), UniProt Q8NBP7); assay: PCSK9 Alexa FRET Standard assay (displacement of AlexaFluor647 tagged cyclic peptide Reagent A); type: binding; conditions: PCSK9 Alexa FRET Standard assay, 0.5 nM PCSK9, 20 nM AF cyclic peptide Reagent A; read-out: IC50
T1 sequence (Q8NBP7 153-692): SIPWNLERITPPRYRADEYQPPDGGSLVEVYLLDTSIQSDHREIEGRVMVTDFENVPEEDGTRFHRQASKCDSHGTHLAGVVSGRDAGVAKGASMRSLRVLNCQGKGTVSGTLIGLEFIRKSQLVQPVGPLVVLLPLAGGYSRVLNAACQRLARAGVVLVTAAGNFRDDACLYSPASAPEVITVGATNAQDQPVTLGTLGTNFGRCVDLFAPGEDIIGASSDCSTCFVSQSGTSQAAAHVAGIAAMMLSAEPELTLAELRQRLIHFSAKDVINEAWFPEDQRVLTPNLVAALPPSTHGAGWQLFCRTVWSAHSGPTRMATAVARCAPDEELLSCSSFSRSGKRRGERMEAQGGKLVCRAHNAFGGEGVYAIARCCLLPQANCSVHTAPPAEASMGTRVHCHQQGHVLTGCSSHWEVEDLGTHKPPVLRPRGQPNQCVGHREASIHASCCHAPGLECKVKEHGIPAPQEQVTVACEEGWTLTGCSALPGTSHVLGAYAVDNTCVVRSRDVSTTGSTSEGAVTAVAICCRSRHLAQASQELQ
Method in brief: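 TR-FRET displacement: 0.5 nM biotinylated PCSK9 with 1.25 nM Strep-Eu and 20 nM AlexaFluor-tagged cyclic peptide (final) in 50 mM HEPES pH 7.4, 0.15 M NaCl, 5 mM CaCl2, 0.01% BSA, 0.01% P20, ≥2 h at room temperature. IC50 from sigmoidal fit, converted to Ki via peptide KD; falling Eu counts flagged false positives.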

PCSK9 [2] = target: T1, PCSK9; assay: PCSK9 Alexa FRET Plus assay (displacement of AlexaFluor647 tagged cyclic peptide Reagent B); type: binding; conditions: Alexa FRET Plus, 0.5 nM PCSK9, 960 nM AF cyclic peptide Reagent B; read-out: IC50
Experimental: A solution containing 1 nM biotinylated PCSK9+2.5 nM Lance Streptavidin Europium (Strep-Eu) was made in 50 mM HEPES pH 7.4, 0.15 M NaCl, 5 mM CaCl2), 0.01% BSA, and 0.01% Surfactant P20. A separate solution containing 1920 nM of the AlexaFluor tagged cyclic peptide was made in the same buffer system. An Echo was used to transfer 0.075 ul of compound plus 0.675 ul of DMSO to each well of an assay plate followed by the addition of 15 ul of PCSK9+Stept-Eu and 15 ul of AF peptide. The final assay volume was 30.750 ul containing 0.5 nM PCSK9, 1.25 nM Strep-Eu, and 960 nM AF cyclic peptide. The reaction was incubated at room temperature for at least two hours prior to fluorescence measurements using an Envision Multilabel Reader. IC50 values were determined by fitting data to a sigmoidal dose-response curve using nonlinear regression. Ki was then calculated from the IC50 and the KD of AF cyclic peptide. Counts (B-counts) of the europium-labeled PCSK9 were followed to observe if compounds were adversely affecting PCSK9. A fall off of the B-counts likely indicated a false positive of inhibition. Data from this procedure was reported as “P=‘numerical value’ (nanomolar)”

Compound | IC50 (PCSK9 [1]) [nM] | IC50 (PCSK9 [2]) [nM]
COCCOCCOCCOCCC(=O)NCCCC[C@@H]1NC(=O)CCSCc2cccc(c2)CSC[C@@H](C(N)=O)NC(=O)[C@]2(C)CCCN2C(=O)[C@H](Cc2ccc(O)cc2)NC(=O)[C@H](Cc2cnc[nH]2)NC(=O)[C@H](CC(=O)O)NC(=O)[C@H](Cc2c[nH]c3ccc(F)cc23)NC(=O)[C@H](Cc2c[nH]c3ccc(F)cc23)NC(=O)CNC1=O [Compound 484] ([Mpa]K(X51)G[Trp(5-F)][Trp(5-F)]DHY[αMeP]C-NH2; linker 1-10 via mXylylene) | 0.11 to 100 | 0.1 to 100
COc1ccc(C[C@@H]2NC(=O)[C@H]([C@@H](C)O)NC(=O)[C@@H]3C[C@H](F)CN3C(=O)[C@H](Cc3c[nH]c4ccc(F)cc34)NC(=O)[C@H](Cc3c[nH]c4ccc(F)cc34)NC(=O)[C@@H](C)NC(=O)[C@H](CCCCN)NC(=O)[C@@H](NC(=O)C(F)(F)F)CC(=O)NCCOc3ccc(cc3)C[C@@H](C(N)=O)NC(=O)[C@]3(C)CCCN3C2=O)cc1 [Compound 124] (Tfa-DK[dA][Trp(5-F)][Trp(5-F)][Pro(cis-4-F)]TY(Me)[αMeP][AEF]-NH2; lactam 1-10) | 0.11 to 100 | 0.1 to 100
C[C@@]12CCCN1C(=O)[C@H](Cc1ccc(O)cc1)NC(=O)[C@H](Cc1c[nH]cn1)NC(=O)[C@H](CC(=O)O)NC(=O)[C@H](Cc1c[nH]c3ccc(F)cc13)NC(=O)[C@H](Cc1c[nH]c3ccc(F)cc13)NC(=O)CNC(=O)[C@@H]1CCC(=O)N1CCCSCc1cccc(c1)CSC[C@@H](C(N)=O)NC2=O [Compound 482] (G[Trp(5-F)][Trp(5-F)]DHY[αMeP]C-NH2; linker N-8 via X1) | 0.11 to 100 | 100 to 500
NC(=O)[C@@H]1Cc2cccc(c2)CNC(=O)CCCCC(=O)NCC(=O)N[C@@H](Cc2c[nH]c3ccc(F)cc23)C(=O)N[C@@H](Cc2c[nH]c3ccc(F)cc23)C(=O)N[C@@H](CC(=O)O)C(=O)N[C@@H](Cc2cnc[nH]2)C(=O)N[C@@H](Cc2ccc(O)cc2)C(=O)N1 [Compound 457] (G[Trp(5-F)][Trp(5-F)]DHY[Phe(3-CH2NH2)]-NH2; linker N-7 via Adipoyl) | 21000 to 50000 | 500 to 5000
COc1ccc(C[C@@H]2NC(=O)[C@@H]3CCCC/C=C\CC[C@@]4(CCCN4C2=O)C(=O)NCCSCc2cccc(c2)CSCCC(=O)N[C@@H](C)C(=O)N[C@H](C)C(=O)N[C@H]2Cc4cccc(c4)CNC(=O)CC[C@@H](C(=O)N3)N3C(=O)[C@@H](NC2=O)C3c2c[nH]c3ccc(F)cc23)cc1 (stereo partly shown) [Compound 524] | 100 to 1000 | 500 to 5000
CC1NC(=O)[C@H](Cc2c[nH]c3ccc(F)cc23)NC(=O)[C@H](Cc2c[nH]c3ccc(F)cc23)NC(=O)[C@@H](C)NC(=O)[C@H](CCCCN)NC(=O)CCSCc2cccc(c2)CSC[C@@H](C(N)=O)NC(=O)[C@]2(C)CCCN2C(=O)[C@H](Cc2ccc(O)cc2)NC(=O)C2=CN=C1S2 (stereo partly shown) [Compound 480] ([Mpa]K[dA][Trp(5-F)][Trp(5-F)][X48]Y[αMeP]C-NH2; linker 1-9 via mXylylene) | 100 to 1000 | 500 to 5000
COc1ccc(C[C@@H]2NC(=O)[C@H]([C@@H](C)O)NC(=O)[C@@H]3C[C@H](F)CN3C(=O)[C@H](Cc3c[nH]c4ccc(F)cc34)NC(=O)[C@H](Cc3c[nH]c4ccc(F)cc34)NC(=O)[C@@H](C)NC(=O)[C@H](CCCCN)NC(=O)[C@@H](NC(=O)C(C)C)CC(=O)NCCOc3ccc(cc3)C[C@@H](C(N)=O)NC(=O)[C@]3(C)CCCN3C2=O)cc1 [Compound 123] (Isobutyryl-DK[dA][Trp(5-F)][Trp(5-F)][Pro(cis-4-F)]TY(Me)[αMeP][AEF]-NH2; lactam 1-10) | 0.11 to 100 | 0.1 to 100
C[C@H]1NC(=O)[C@H](CCCCN)NC(=O)CCSCc2cccc(c2)CSC[C@@H](C(N)=O)NC(=O)[C@]2(C)CCCN2C(=O)[C@H](Cc2ccc(O)cc2)NC(=O)c2cccc(c2)CNC(=O)[C@H](Cc2c[nH]c3ccc(F)cc23)NC(=O)[C@H](Cc2c[nH]c3ccc(F)cc23)NC1=O [Compound 089] ([Mpa]K[dA][Trp(5-F)][Trp(5-F)][3Amb]Y[αMeP]C-NH2; linker 1-9 via mXylylene) | 0.11 to 100 | 0.1 to 100
CC(=O)N[C@@H]1CCC/C=C/CO[C@H]2C[C@@H](C(N)=O)N(C2)C(=O)[C@H](Cc2ccc(O)cc2)NC(=O)[C@H](Cc2cnc[nH]2)NC(=O)[C@H](CC(=O)O)NC(=O)[C@H](Cc2c[nH]c3ccc(F)cc23)NC(=O)[C@H](Cc2c[nH]c3ccc(F)cc23)NC(=O)CNC1=O [Compound 420] | 100 to 1000 | 100 to 500
C[C@@]12CCCN1C(=O)[C@H](Cc1ccc(O)cc1)NC(=O)N[C@H]1CCCc3ccc(cc31)C(=O)[C@H](Cc1c[nH]c3ccc(F)cc13)NC(=O)[C@H](Cc1c[nH]c3ccc(F)cc13)NC(=O)CNC(=O)[C@H](CCCCN)NC(=O)CCSCc1cccc(c1)CSC[C@@H](C(N)=O)NC2=O [Compound 139] | 1000 to 12100 | 500 to 5000
COc1ccc(C[C@@H]2NC(=O)[C@H](Cc3cnc[nH]3)NC(=O)[C@H](CC(=O)O)NC(=O)[C@H](Cc3c[nH]c4ccc(F)cc34)NC(=O)[C@H](Cc3c[nH]c4ccc(F)cc34)NC(=O)[C@@H](C)NC(=O)CCCCCC(=O)NCc3ccc(cc3)C[C@@H](C(N)=O)NC(=O)[C@]3(C)CCCN3C2=O)cc1 [Compound 440] ([dA][Trp(5-F)][Trp(5-F)]DHY(Me)[αMeP][Phe(4-CH2NH2)]-NH2; linker N-8 via Heptanedioyl) | 100 to 1000 | 100 to 500
C[C@@]12CCCN1C(=O)[C@H](Cc1ccc(O)cc1)NC(=O)CN1C(=O)[C@H](COc3ccccc31)NC(=O)[C@H](Cc1c[nH]c3ccc(F)cc13)NC(=O)[C@H](Cc1c[nH]c3ccc(F)cc13)NC(=O)CNC(=O)[C@H](CCCCN)NC(=O)CCSCc1cccc(c1)CSC[C@@H](C(N)=O)NC2=O [Compound 126] | 0.11 to 100 | 0.1 to 100
CCCc1cccc(C[C@@H]2NC(=O)[C@@H](C)NC(=O)[C@H](C)NC(=O)CCSCc3cccc(c3)CSCCNC(=O)[C@]3(C)CCCN3C(=O)[C@H](Cc3ccc(OC)cc3)NC[C@H]([C@@H](C)OC)NC(=O)[C@@H]3[C@@H](O)CCN3C(=O)[C@H](Cc3c[nH]c4ccc(F)cc34)NC2=O)c1 [Compound 459] | 21000 to 50000 | 500 to 5000
COc1ccc(C[C@@H]2NC(=O)[C@H]([C@@H](C)O)NC(=O)[C@@H]3C[C@H](F)CN3C(=O)[C@H](Cc3c[nH]c4ccc(F)cc34)NC(=O)[C@H](Cc3c[nH]c4ccc(F)cc34)NC(=O)[C@@H](C)NC(=O)[C@H](CCCCN)NC(=O)[C@@H](NC(C)=O)CCCNC(=O)COc3ccc(cc3)C[C@@H](C(N)=O)NC(=O)[C@]3(C)CCCN3C2=O)cc1 [Compound 091] (Ac-[Orn]K[dA][Trp(5-F)][Trp(5-F)][Pro(cis-4-F)]TY(Me)[αMeP]Y-NH2; linker 1-10 via X2) | 0.11 to 100 | 100 to 500
CCCCCCCCCCCCCCCC(=O)N[C@@H](CCC(=O)NCCOCCOCC(=O)NCCOCCOCC(=O)NCc1cccc(C[C@@H]2NC(=O)[C@@H](C)NC(=O)[C@H](CCCCN)NC(=O)CCSCc3cccc(c3)CSC[C@@H](C(N)=O)NC(=O)[C@]3(C)CCCN3C(=O)[C@H](Cc3ccc(O)cc3)NC(=O)[C@H](Cc3cnc[nH]3)NC(=O)[C@H](CC(=O)O)NC(=O)[C@H](Cc3c[nH]c4ccc(F)cc34)NC2=O)c1)C(=O)O [Compound 454] ([Mpa]K[dA][Phe(3-CH2NH2)]([AEEA-AEEA-γGlu-Palmitoyl])[Trp(5-F)]DHY[αMeP]C-NH2; linker 1-10 via mXylylene) | 0.11 to 100 | 100 to 500
COc1ccc(C[C@@H]2NC(=O)[C@H]([C@@H](C)O)NC(=O)[C@@H]3C[C@H](F)CN3C(=O)[C@H](Cc3c[nH]c4ccc(F)cc34)NC(=O)[C@H](Cc3c[nH]c4ccc(F)cc34)NC(=O)[C@@H](C)NC(=O)[C@H](CCCCN)NC(=O)[C@@H](NC(=O)C(C)(C)F)CC(=O)NCCOc3ccc(cc3)C[C@@H](C(N)=O)NC(=O)[C@]3(C)CCCN3C2=O)cc1 [Compound 112] (X28-DK[dA][Trp(5-F)][Trp(5-F)][Pro(cis-4-F)]TY(Me)[αMeP][AEF]-NH2; lactam 1-10) | 0.11 to 100 | 100 to 500
COc1ccc(C[C@@H]2NC(=O)[C@H]([C@@H](C)O)NC(=O)[C@@H]3C[C@H](F)CN3C(=O)[C@H](Cc3c[nH]c4ccc(F)cc34)NC(=O)[C@H](Cc3c[nH]c4ccc(F)cc34)NC(=O)[C@@H](C)NC(=O)[C@H](CCCCN)NC(=O)[C@@H](NC(=O)CC(F)(F)F)CC(=O)NCCOc3ccc(cc3)C[C@@H](C(N)=O)NC(=O)[C@]3(C)CCCN3C2=O)cc1 [Compound 114] ({Propanoyl(3,3,3-F3)}-DK[dA][Trp(5-F)][Trp(5-F)][Pro(cis-4-F)]TY(Me)[αMeP][AEF]-NH2; lactam 1-10) | 21000 to 50000 | 500 to 5000

Source: patent publication US11530244B2, “Cyclic polypeptides for PCSK9 inhibition” (priority 2018, dated 2022)
